The record followed here is patent US20230203014A1, “NOVEL F[…] FOR LABELING TUMOR TISSUE” (PROIMAGING, priority 2020, published 2023).

Assay [1] concerns 4T1-Dendra2 mammary tumors. Put plainly: in vivo imaging of mammary tumors (fluorescence, IVIS Spectrum). Also noted: species or system mice. The note with it: starting from 48 h post-injection. The source says: ICG (or indocyanine green / Infracyanine) is a fluorescent agent of the prior art, already approved for use in humans for evaluation of cardiac and hepatic function, as well as in ophthalmology, for retinal diseases. It is also undergoing evaluation in many clinical trials throughout the world for guidance of surgery during tumoral exereses, or mapping of the ganglia draining the tumors, by near infrared imaging. ICG was compared with compound (2) according to the invention, synthesis of which is described above in example 2; this compound is called CJ215 in this study.
The study included 30 mice in total, distributed in three groups. The tumoral grafts were all carried out with 50 000 cells 4T1-Dendra2 /20 µl injected in 2 mammary glands contralaterally for each of the mice. […]
The variation of the intensity of the fluorescence signals recorded for each of the biomarkers over time was evaluated from the microscopy image. The capacity of the two markers for producing a signal specifically localized to the tumor was assessed quantitatively by calculating the ratio of the specific signal associated with the tumor to the nonspecific signal in the surrounding tissues. […]
The quantitative measurements were performed on the raw images, which had not been deconvoluted. […]

The subject of assay [2] is orthotopic pancreatic adenocarcinoma. Put plainly: ex vivo fluorescence imaging of pancreatic tumors. Type of assay: in vivo, mouse. As to conditions: control dye. As to the method:
A model of orthotopic pancreatic adenocarcinoma in the mouse was developed. The tumoral cells were amplified subcutaneously in SCID mice and the resultant fragments were then implanted surgically in the pancreas of irradiated BALB/c nude mice.
The development of the tumor was monitored in vivo by MRI (4.7T, PharmaScan, Bruker Biospin) at three time points, D14, 28 and 36. The animals were subjected to […] in order to minimize autofluorescence. Fluorescent imaging was performed with a charge-coupled device (CCD) camera (PhotonRT, BiospaceLab) with excitation at 700 nm and an emission filter at 770 nm.
After sessions of in vivo imaging performed at 2 h, 48 h and 164 h, ex vivo fluorescent images were acquired. The fluorescent compounds according to the invention 2 (CJ215) and CJ319 (the structure of which is detailed below) were injected intravenously at 2 mg/kg, 39 days after implantation of the tumor fragments, whereas the average volumes of the tumors were about 70 mm^3. Indocyanine green (ICG), a dye widely used in the per-operative imaging of tumors, was included as a control.

Take `CC1(C)C(/C=C/C=C/C=C/C=C2\N(CCCCS(=O)(=O)O)c3ccc4ccccc4c3C2(C)C)=[N+](CCCCS(=O)(=O)[O-])c2ccc3ccccc3c21` [ICG, indocyanine green]: the “observability of the fluorescent signal in the tumors” value in assay [1] was “no longer observable in the tumors”. The “specific accumulation in the pancreas or the tumor” value in assay [2] was “did not show any specific accumulation”.
